Measurements taken from patent US8461328B2, “Tricyclic heterocyclic compounds, compositions and methods of use thereof” (Genentech, Inc., priority 2010, dated 2013).

Legend:
Format in all cases: biochemical
TYK2 = target: T1, TYK2 (Homo sapiens, UniProt P29597); test: TYK2 inhibition (Table 4)
T1 construct: made in house; host or cells: SF9 insect cells (baculovirus)
T1 sequence (P29597 873-1187): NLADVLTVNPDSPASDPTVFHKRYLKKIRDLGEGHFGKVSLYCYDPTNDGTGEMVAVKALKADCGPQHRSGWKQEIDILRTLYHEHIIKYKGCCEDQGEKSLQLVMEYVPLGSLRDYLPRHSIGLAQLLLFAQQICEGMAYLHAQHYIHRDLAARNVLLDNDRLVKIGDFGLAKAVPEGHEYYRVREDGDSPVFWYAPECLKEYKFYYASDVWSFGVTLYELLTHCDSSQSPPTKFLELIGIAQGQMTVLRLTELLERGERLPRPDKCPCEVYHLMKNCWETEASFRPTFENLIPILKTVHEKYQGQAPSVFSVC

JAK2 = target: T2, JAK2 (Homo sapiens, UniProt O60674); test: JAK2 inhibition (Table 4); conditions: read-out: JAK2 Ki
T2 construct: made in house; host or cells: SF9 insect cells (baculovirus)
T2 sequence (O60674 812-1132): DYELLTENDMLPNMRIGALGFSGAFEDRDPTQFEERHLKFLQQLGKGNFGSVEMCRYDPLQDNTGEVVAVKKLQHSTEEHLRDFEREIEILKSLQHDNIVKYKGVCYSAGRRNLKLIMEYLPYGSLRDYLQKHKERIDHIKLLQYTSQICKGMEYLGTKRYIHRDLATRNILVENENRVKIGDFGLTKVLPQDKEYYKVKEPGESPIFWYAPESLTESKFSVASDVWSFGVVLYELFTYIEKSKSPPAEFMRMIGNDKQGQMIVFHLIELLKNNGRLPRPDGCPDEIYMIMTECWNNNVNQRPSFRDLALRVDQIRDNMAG

JAK3 = target: T3, JAK3 (Homo sapiens, UniProt P52333); test: JAK3 inhibition (Table 4); conditions: read-out: JAK3 Ki
T3 construct: made in house; host or cells: SF9 insect cells (baculovirus)
T3 sequence (P52333 783-1124): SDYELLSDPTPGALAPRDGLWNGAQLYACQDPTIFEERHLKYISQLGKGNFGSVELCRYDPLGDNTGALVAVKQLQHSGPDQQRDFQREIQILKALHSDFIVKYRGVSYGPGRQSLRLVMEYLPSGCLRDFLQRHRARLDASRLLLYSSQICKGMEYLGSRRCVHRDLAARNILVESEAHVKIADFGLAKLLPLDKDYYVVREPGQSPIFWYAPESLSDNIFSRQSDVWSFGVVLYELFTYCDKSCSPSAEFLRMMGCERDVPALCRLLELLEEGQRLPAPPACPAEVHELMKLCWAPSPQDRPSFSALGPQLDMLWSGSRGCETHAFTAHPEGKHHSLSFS

JAK1 = target: T4, JAK1 (Homo sapiens, UniProt P23458); test: JAK1 inhibition (Table 4); conditions: read-out: JAK1 Ki
T4 construct: made in house; host or cells: SF9 insect cells (baculovirus)
T4 sequence (P23458 852-1154): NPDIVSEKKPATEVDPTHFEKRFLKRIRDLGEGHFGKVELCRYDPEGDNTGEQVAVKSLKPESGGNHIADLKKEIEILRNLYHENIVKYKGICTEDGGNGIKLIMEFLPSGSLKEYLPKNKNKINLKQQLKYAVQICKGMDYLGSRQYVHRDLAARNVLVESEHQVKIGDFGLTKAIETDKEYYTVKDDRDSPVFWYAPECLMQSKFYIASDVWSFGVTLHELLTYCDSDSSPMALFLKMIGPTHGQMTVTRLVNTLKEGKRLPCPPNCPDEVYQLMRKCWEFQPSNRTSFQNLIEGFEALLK

Ki (TYK2) [nM]	Ki (JAK2) [nM]	Ki (JAK3) [nM]	Ki (JAK1) [nM]	Structure (SMILES)
41.3	12.8	58.5	1.45	Cc1nc2cnc3[nH]ccc3c2n1C1(C)CCN(S(C)(=O)=O)CC1 [Example 580, 1-(1-Methanesulfonyl-4-methyl-piperidin-4-yl)-2-methyl-1,6-dihydro-1,2,3,5,6-tetraaza-as-indacene]
275	114	280	26.8	Cc1nc2cnc3[nH]ccc3c2n1C1(C)CCN(CCC#N)CC1 [Example 581, 3-[4-Methyl-4-(2-methyl-6H-1,2,3,5,6-tetraaza-as-indacen-1-yl)-piperidin-1-yl]-propionitrile]
1050	364	592	102	CC1(n2nnc3cnc4[nH]ccc4c32)CCN(CCC#N)CC1 [Example 582, 3-[4-Methyl-4-(6H-1,2,3,5,6-pentaaza-as-indacen-1-yl)-piperidin-1-yl]-propionitrile]
173	31.9	363	4.36	CC1(n2nnc3cnc4[nH]ccc4c32)CCN(S(C)(=O)=O)CC1 [Example 583, 1-(1-Methanesulfonyl-4-methyl-piperidine-4-yl)-1,6-dihydro-1,2,3,5,6-pentaaza-as-indacen-1-yl]
454	105	1320	37	CC1(n2nnc3cnc4[nH]ccc4c32)CCN(S(=O)(=O)c2cccnc2)CC1 [Example 584, 1-[4-Methyl-1-(pyridine-3-sulfonyl)-piperidin-4-yl]-1,6-dihydro-1,2,3,5,6-pentaaza-as-indacene]
67.3	63.4	88.3	9.46	C[C@@H](O)c1nc2cnc3[nH]ccc3c2n1C1(C)CCN(S(C)(=O)=O)CC1 [Example 585, (R)-1-[1-(1-Methanesulfonyl-4-methyl-piperidinyl)-1,6-dihydro-1,2,3,5,6-tetraaza-as-indacen-2-yl]-ethanol]
9.73	1.6	23.3	1.09	CC(C)(C#N)CN1CCC(n2cnc3cnc4[nH]ccc4c32)CC1 [Example 586, 2,2-Dimethyl-3-[4-(6H-1,2,3,5,6-tetraaza-as-indacen-1-yl)-piperidin-1-yl]-propionitrile]
8.02	2.16	8.35	0.61	Cc1nc2cnc3[nH]ccc3c2n1C1CCN(CC(F)(F)F)CC1 [Example 587, 2-Methyl-1-[1-(2,2,2-trifluoro-ethyl)-piperidin-4-yl]-1,6-dihydro-1,2,3,5,6-tetraaza-as-indacene]
584	13.3	5.73	5.81	NCC(F)(F)c1nc2cnc3[nH]ccc3c2n1C1CCN(Cc2cccnc2)CC1 [Example 588, 2,2-Difluoro-2-[1-(1-pyridin-3-ylmethyl-piperidin-4-yl)-1,6-dihydro-1,2,3,5,6-tetraaza-as-indacen-2-yl]-ethylamine]
43.1	13.5	17.1	2.74	Cc1nc2cnc3[nH]ccc3c2n1[C@H]1CC[C@H](NC(C)CC#N)CC1 (stereo partly drawn) [Example 590, Trans 3-[4-(2-methyl-6H-1,2,3,5,6-tetraaza-as-indacen-1-yl)-cyclohexylamino]-butyronitrile]
2.51	1.87	13	0.64	Cc1nc2cnc3[nH]ccc3c2n1[C@H]1CC[C@H](NCC(F)(F)F)CC1 [Example 591, Trans[4-(2-methyl-6H-1,2,3,5,6-tetraaza-as-indacen-1-yl)-cyclohexyl]-(2,2,2-trifluoro-ethyl)-amine]
215	15.5	344	12	COCCNC(=O)N(C)[C@H]1CC[C@H](n2cnc3cnc4[nH]ccc4c32)CC1 [Example 592, Trans 3-(2-Methoxy-ethyl)-1-methyl-1-[4-(6H-1,2,3,5,6-tetraaza-as-indacen-1-yl)-cyclohexyl]-urea]
